Results: BigSolDB 2.1

CC(=O)[C@H]1CC[C@H]2[C@@H]3CCC4=CC(=O)CC[C@]4(C)[C@H]3CC[C@]12C
solubility (mole fraction) (in 1,4-dioxane, 288.15 K): 0.0614 | solubility (mole fraction) (in 1,4-dioxane, 293.15 K): 0.073 | solubility (mole fraction) (in 1,4-dioxane, 298.15 K): 0.0855 | solubility (mole fraction) (in 1,4-dioxane, 303.15 K): 0.1 | solubility (mole fraction) (in 1,4-dioxane, 308.15 K): 0.117 | solubility (mole fraction) (in 1,4-dioxane, 313.15 K): 0.136 | solubility (mole fraction) (in 1,4-dioxane, 318.15 K): 0.156 | solubility (mole fraction) (in 1,4-dioxane, 323.15 K): 0.179 | solubility (mole fraction) (in THF, 278.15 K): 0.0598 | solubility (mole fraction) (in THF, 283.15 K): 0.0701 | solubility (mole fraction) (in THF, 288.15 K): 0.0816 | solubility (mole fraction) (in THF, 293.15 K): 0.0943 | solubility (mole fraction) (in THF, 298.15 K): 0.109 | solubility (mole fraction) (in THF, 303.15 K): 0.125 | solubility (mole fraction) (in THF, 308.15 K): 0.143 | solubility (mole fraction) (in THF, 313.15 K): 0.163 | solubility (mole fraction) (in THF, 318.15 K): 0.185 | solubility (mole fraction) (in THF, 323.15 K): 0.209 | solubility (mole fraction) (in acetone, 278.15 K): 0.0143 | solubility (mole fraction) (in acetone, 283.15 K): 0.0187 | solubility (mole fraction) (in acetone, 288.15 K): 0.0244 | solubility (mole fraction) (in acetone, 293.15 K): 0.0311 | solubility (mole fraction) (in acetone, 298.15 K): 0.0397 | solubility (mole fraction) (in acetone, 303.15 K): 0.0494 | solubility (mole fraction) (in acetone, 308.15 K): 0.0617 | solubility (mole fraction) (in acetone, 313.15 K): 0.076 | solubility (mole fraction) (in acetone, 318.15 K): 0.094 | solubility (mole fraction) (in acetone, 323.15 K): 0.116 | solubility (mole fraction) (in acetonitrile, 278.15 K): 0.00716 | solubility (mole fraction) (in acetonitrile, 283.15 K): 0.0101 | solubility (mole fraction) (in acetonitrile, 288.15 K): 0.0131 | solubility (mole fraction) (in acetonitrile, 293.15 K): 0.0178 | solubility (mole fraction) (in acetonitrile, 298.15 K): 0.0235 | solubility (mole fraction) (in acetonitrile, 303.15 K): 0.0305 | solubility (mole fraction) (in acetonitrile, 308.15 K): 0.0396 | solubility (mole fraction) (in acetonitrile, 313.15 K): 0.0508 | solubility (mole fraction) (in acetonitrile, 318.15 K): 0.0646 | solubility (mole fraction) (in acetonitrile, 323.15 K): 0.0816 | solubility (mole fraction) (in ethanol, 278.15 K): 0.00337 | solubility (mole fraction) (in ethanol, 283.15 K): 0.00455 | solubility (mole fraction) (in ethanol, 288.15 K): 0.00623 | solubility (mole fraction) (in ethanol, 293.15 K): 0.00859 | solubility (mole fraction) (in ethanol, 298.15 K): 0.0112 | solubility (mole fraction) (in ethanol, 303.15 K): 0.0146 | solubility (mole fraction) (in ethanol, 308.15 K): 0.0192 | solubility (mole fraction) (in ethanol, 313.15 K): 0.0251 | solubility (mole fraction) (in ethanol, 318.15 K): 0.0319 | solubility (mole fraction) (in ethanol, 323.15 K): 0.0411 | solubility (mole fraction) (in ethyl acetate, 278.15 K): 0.0142 | solubility (mole fraction) (in ethyl acetate, 283.15 K): 0.0175 | solubility (mole fraction) (in ethyl acetate, 288.15 K): 0.0215 | solubility (mole fraction) (in ethyl acetate, 293.15 K): 0.0266 | solubility (mole fraction) (in ethyl acetate, 298.15 K): 0.0321 | solubility (mole fraction) (in ethyl acetate, 303.15 K): 0.039 | solubility (mole fraction) (in ethyl acetate, 308.15 K): 0.0471 | solubility (mole fraction) (in ethyl acetate, 313.15 K): 0.0566 | solubility (mole fraction) (in ethyl acetate, 318.15 K): 0.0671 | solubility (mole fraction) (in ethyl acetate, 323.15 K): 0.0802 | solubility (mole fraction) (in isopropanol, 278.15 K): 0.00314 | solubility (mole fraction) (in isopropanol, 283.15 K): 0.00446 | solubility (mole fraction) (in isopropanol, 288.15 K): 0.00615 | solubility (mole fraction) (in isopropanol, 293.15 K): 0.00841 | solubility (mole fraction) (in isopropanol, 298.15 K): 0.0115 | solubility (mole fraction) (in isopropanol, 303.15 K): 0.0153 | solubility (mole fraction) (in isopropanol, 308.15 K): 0.0203 | solubility (mole fraction) (in isopropanol, 313.15 K): 0.0269 | solubility (mole fraction) (in isopropanol, 318.15 K): 0.0349 | solubility (mole fraction) (in isopropanol, 323.15 K): 0.0455 | solubility (mole fraction) (in methanol, 278.15 K): 0.00232 | solubility (mole fraction) (in methanol, 283.15 K): 0.00335 | solubility (mole fraction) (in methanol, 288.15 K): 0.00472 | solubility (mole fraction) (in methanol, 293.15 K): 0.00676 | solubility (mole fraction) (in methanol, 298.15 K): 0.0092 | solubility (mole fraction) (in methanol, 303.15 K): 0.0127 | solubility (mole fraction) (in methanol, 308.15 K): 0.0173 | solubility (mole fraction) (in methanol, 313.15 K): 0.0234 | solubility (mole fraction) (in methanol, 318.15 K): 0.0308 | solubility (mole fraction) (in methanol, 323.15 K): 0.0412 | solubility (mole fraction) (in n-butanol, 278.15 K): 0.00706 | solubility (mole fraction) (in n-butanol, 283.15 K): 0.00947 | solubility (mole fraction) (in n-butanol, 288.15 K): 0.0127 | solubility (mole fraction) (in n-butanol, 293.15 K): 0.0164 | solubility (mole fraction) (in n-butanol, 298.15 K): 0.0211 | solubility (mole fraction) (in n-butanol, 303.15 K): 0.0268 | solubility (mole fraction) (in n-butanol, 308.15 K): 0.0346 | solubility (mole fraction) (in n-butanol, 313.15 K): 0.0439 | solubility (mole fraction) (in n-butanol, 318.15 K): 0.0551 | solubility (mole fraction) (in n-butanol, 323.15 K): 0.0682 | solubility (mole fraction) (in n-heptane, 278.15 K): 0.000112 | solubility (mole fraction) (in n-heptane, 283.15 K): 0.00018 | solubility (mole fraction) (in n-heptane, 288.15 K): 0.000281 | solubility (mole fraction) (in n-heptane, 293.15 K): 0.000425 | solubility (mole fraction) (in n-heptane, 298.15 K): 0.000617 | solubility (mole fraction) (in n-heptane, 303.15 K): 0.000914 | solubility (mole fraction) (in n-heptane, 308.15 K): 0.00135 | solubility (mole fraction) (in n-heptane, 313.15 K): 0.00198 | solubility (mole fraction) (in n-heptane, 318.15 K): 0.00284 | solubility (mole fraction) (in n-heptane, 323.15 K): 0.00402 | solubility (mole fraction) (in n-propanol, 278.15 K): 0.00527 | solubility (mole fraction) (in n-propanol, 283.15 K): 0.0071 | solubility (mole fraction) (in n-propanol, 288.15 K): 0.00969 | solubility (mole fraction) (in n-propanol, 293.15 K): 0.0131 | solubility (mole fraction) (in n-propanol, 298.15 K): 0.0171 | solubility (mole fraction) (in n-propanol, 303.15 K): 0.0227 | solubility (mole fraction) (in n-propanol, 308.15 K): 0.0294 | solubility (mole fraction) (in n-propanol, 313.15 K): 0.0378 | solubility (mole fraction) (in n-propanol, 318.15 K): 0.0485 | solubility (mole fraction) (in n-propanol, 323.15 K): 0.0614 | solubility (mole fraction) (in toluene, 278.15 K): 0.0797 | solubility (mole fraction) (in toluene, 283.15 K): 0.0907 | solubility (mole fraction) (in toluene, 288.15 K): 0.102 | solubility (mole fraction) (in toluene, 293.15 K): 0.115 | solubility (mole fraction) (in toluene, 298.15 K): 0.13 | solubility (mole fraction) (in toluene, 303.15 K): 0.146 | solubility (mole fraction) (in toluene, 308.15 K): 0.162 | solubility (mole fraction) (in toluene, 313.15 K): 0.182 | solubility (mole fraction) (in toluene, 318.15 K): 0.203 | solubility (mole fraction) (in toluene, 323.15 K): 0.225
